Assays:
Assay type in all cases: cell-based, human
[1] = test system: UVA-irradiated HaCaT cells; experiment: TUNEL assay (UVA-induced apoptosis); details: 500 nM 24 hours prior to UVA 15 J/cm^2, vs UVA alone
Description: The apoptosis can induce DNA double-strand breaks to generate a DNA fragment, To examine the effect of the ergothioneine on the UVA-induced apoptosis, an apoptotic cell death is measured using a terminal deoxyucleotidyl transferase-meditated dUTP-fluorescein nick end-labeking (TUNEL) assay, and protein expressions of apoptosis-related proteins, Caspase-3, Caspase-9, Bax and Bcl-2, are measured using a Western blot analysis. Therefore, the aforementioned methods in this example can analyze whether pretreating with the ergothioneine improves the UVA-induced apoptosis. A chromosome breakage represents an initial stage of a […]. The TUNEL assay is based on a presence of nicks in the DNA which can be identified by terminal deoxynucleotidyl transferase (TdT) at 3′ OH ends, ad the 3′ OH ends bind to dUTPs that are secondarily labeled with a fluorescent marker. After a coloration, the cells suffered the apoptosis can be identified. The HaCaT cells are incubated with or without the ergothioneine for 24 hours, wherein the concentration of the ergothioneine is 500 nM. After incubation, the HaCaT cells are exposed to the UVA (15 J/cm^2), and then cultured for 4 hours, Then, the HaCaT cells are incubated with TUNEL reaction buffer. The stained cells are visualized using the fluorescence microscope and photographed. […] FIG. 5-(B) is the quantitative diagram of the TUNEL assay.

Nrf2 = experiment: Western blot of Nrf2 signaling pathway associated proteins (Nrf2, Keap-1, HO-1, NQO-1, γ-GCLC)
Description: The effect of the ergothioneine on expressions of Nrf2 protein and downstream proteins of the HaCaT cells is monitored by the Western blot analysis. The detected downstream proteins are heme oxygenase-1 (HO-1) γ-glutamylcysteine ligase catalytic subunit (γ-GCLC) and NAD(P)H: quinone acceptor oxidoreductase 1 (NQO-1). The HaCaT cells are incubated with or without the ergothioneine for 1 hour or 4 hours, wherein the concentration of the ergothioneine is 125 nM, 250 nM and 500 nM, respectively. After incubation, the HaCaT cells are suspended in a lysis buffer to collect the proteins. FIG. 7 illustrates the effect of the ergothioneine on the expressions of the Nrf2 signaling pathway associated proteins of the HaCaT cells.
In addition, we examine the effect of the ergothioneine on the expressions of the Nrf2 and the Nrf2 pathway associated proteins of the HaCaT cells treated with the UVA irradiation. The HaCaT cells are incubated with or without the ergothioneine for 24 hours, wherein the concentration of the ergothioneine is 125 nM, 250 nM and 500 nM, respectively. After incubation, the HaCaT cells are exposed to the UVA (15 J/cm^2), and then cultured for 1 hour or 4 hours. Next, the HaCaT cells are suspended in the lysis buffer to collect the proteins, and the protein expressions are measured by the Western blot analysis. FIG. 8 illustrates the effect of the ergothioneine on the expressions of the Nrf2 signaling pathway associated proteins of the UVA-irradiated HaCaT cells. FIG. 8-(A) represents the Western blot analysis results of total Nrf2 and Keap-1 protein levels, wherein the HaCaT cells are pretreated with the ergothioneine (125-500 nM), and then exposed to the UVA for 1 hour. FIG. 8-(B) represents the Western blot analysis results of the HO-1 the NQO-1 and the γ-GCLC proteins, wherein the HaCaT cells are pretreated with the ergothioneine (125-500 nM), and then exposed to the UVA for 4 hour.

[2] = test system: antioxidant response element (ARE); experiment: ARE luciferase gene reporter assay; details: HaCaT cells treated for 4 hours, vs untreated
From the text: The Nrf2 binds to the small Maf after translocating into the nucleus. […] Given that the ergothioneine treatment to the HaCaT cells can promote the Nrf2 translocating into the nucleus; this example next investigates whether the ARE transcriptional activity can be started by using a luciferase gene reporter assay. The luciferase gene reporter assay is transfected a plasmid containing the ARE gene and a luciferase gene into the HaCaT cells, wherein the luciferase gene is a reporter gene. An internal standard of the luciferase gene reporter assay is β-galactosidase, and a luminescence intensity is measured by Dual Light Kit (Applied Biosystems).

[3] = test system: Nrf2 knockdown HaCaT cells; experiment: MTT cell viability in siRNA-transfected HaCaT cells; details: 500 nM 24 hours, UVA 15 J/cm^2 4 hours
Description: (§1) The siRNA transfection includes steps as follows. The HaCaT cells are seeded in a 6-well plate with 4×10^5 cells/well and then maintained at 37° C. in the humidified atmosphere of 5% CO2 untill the time of the transfection. The day after reaching 40-60% confluence, the culture medium is replaced with 1 mL of FBS-free and antibiotic-free culture medium in each well, and the HaCaT cells are transfected with a siNrf2 or a control siRNA by using Lipofectamine 2000 (Invitrogen, U.S.A.) for 4-6 hours. After the incubation for 4-6 hours, the HaCaT cells are washed with the culture medium supplemented with 10% FBS 2-3 times, and then cultured in the culture medium supplemented with 10% FBS for 12-16 hours.
The HaCaT cells are incubated with 500 nM ergothioneine for 24 hours after the siRNA transfection.

[4] = test system: Nrf2 knockdown HaCaT cells; experiment: ROS generation in siRNA-transfected HaCaT cells; details: 500 nM 24 hours
Description: as §1
We further measure the amount of ROS generation in the HaCaT cells treated with the ergothioneine prior to 15 J/cm^2 UVA irradiation. The HaCaT cells are incubated with 500 nM ergothioneine for 24 hours after the siRNA transfection. After the incubation, the HaCaT cells are treated with or without the UVA irradiation (15 J/cm^2) for 4 hours, and then the HaCaT cells are subjected to detect the ROS generation.

[5] = 125-500 nM 24 hours pretreatment, UVA 15 J/cm^2, 4 hours

## C[N+](C)(C)[C@@H](Cc1c[nH]c(=S)[nH]1)C(=O)[O-] [ergothioneine, 2-mercapto histidine trimethylbetain]
[1]
  amount of TUNEL fluorescence (apoptosis): enormously reduced
Nrf2; 125-500 nM 24 hours pretreatment, UVA 15 J/cm^2, 1 hour
  Nrf2 expression (Nrf2/Keap-1 ratio): dramatically increases the Nrf2 expression
Nrf2; [5]
  expression of HO-1 protein: also increased
  expression of NQO-1 protein: also increased
  expression of γ-GCLC protein: also increased
Nrf2; 125-500 nM for 1 hour, no UVA, especially with 500 nM
  total Nrf2 protein level: increases the total Nrf2 protein level
Nrf2; 125-500 nM for 4 hours, no UVA
  expression of HO-1 protein: also increased
  expression of NQO-1 protein: also increased
  expression of γ-GCLC protein: also increased
[2]
  luciferase activity derived from the ARE promoter: increased
[3]; Nrf2 siRNA
  UVA-induced cell death: unable to ameliorate the UVA-induced cell death
[3]; control siRNA
  UVA-induced cell death: able to reduce a UVA-induced cell death
[4]; Nrf2 siRNA, UVA 15 J/cm^2
  ROS generation: unable to decrease the ROS generation
[4]; control siRNA, UVA 15 J/cm^2, vs UVA alone
  ROS generation: significantly reduced

From patent publication US20160067221A1, “USE OF ERGOTHIONEINE FOR INDUCING ACTIVITY OF NRF2 IN CELL” (China Medical University, priority 2014, published 2016)
